From patent publication US9504676B2, “Molecules inhibiting a metabolic pathway involving the Syk protein tyrosine kinase and method for identifying said molecules” (CENTRE NATIONAL DE LA RECHERCHE SCIENTIFIQUE, priority 2008, dated 2016)

Test system: Spleen B lymphocyte cells
Assay: In vitro B lymphocyte proliferation induced by anti-IgM
Assay type: cell-based, BALB/c mice
Experimental: • 1) Chemical products and antibodies. A chemical bank of 3000 molecules (a varied subset) was acquired from ChemBridge, Inc. (San Diego, Calif.). Stocks of solutions of small molecules were prepared at a rate of 10 mM in DMSO (dimethylsulphoxide), except for C-13 (methyl 2-{5-[(3-benzyl-4-oxo-2-thioxo-1,3-thiazolidin-5-ylidene)methyl]-2-furyl}benzoate, ChemBridge ID No. 6197026) prepared in DMF (dimethylformamide). Unless specified otherwise, all the reagents were supplied by Sigma. Dinitrophenyl (DNP) hapten was acquired from Calbiochem. Sepharose GammaBind G and all the secondary antibodies were supplied by GE Health Amersham Biosciences. […] The binding of G4G11 with Syk was assessed by adding the 9E10 monoclonal antibody conjugated with HRP detecting the amino acid sequence EQKLISEEDLN of human c-myc protein located at the C-terminal end of the scFv fragment. To generate Syk mutants, targeted mutagenesis was used on GST:Syk 6-242 protein and the binding of G4G11 with the mutants was assessed in the presence of 5 μM of C-13. • 3) Cells, culture conditions and functional tests. […] The level of β-hexosaminidase released was measured 10 min later and the TNF-α titration was performed by means of a cytotoxicity test on L929 cells as described previously^10, 3 hours after stimulation. […]

Structure (SMILES): COC(=O)c1ccccc1-c1ccc(/C=C2/SC(=S)N(Cc3ccccc3)C2=O)o1 [Molecule C-13, methyl 2-{5-[(3-benzyl-4-oxo-2-thioxo-1,3-thiazolidin-5-ylidene)methyl]-2-furyl}benzoate]
- BCR-dependent B lymphocyte in vitro proliferation: inhibited in a dose-dependent fashion
